ChEMBL document CHEMBL1125050, “Potential antisecretory antidiarrheals. 2. Alpha 2-adrenergic 2-[(aryloxy)alkyl]imidazolines” (J Med Chem, 1990)
The source made the active and inactive calls.

How the values were obtained:
[1] = species: Oryctolagus cuniculus; assay: IInhibition of increase in potential difference caused by diarrhea inducing secretogogues determined in rabbit; 0 = inactive; assay type: functional
[2] = species: Rattus norvegicus; assay: animal or person; details: sc, read-out: ID50
[3] = species: Oryctolagus cuniculus; assay: Inhibition of increase in potential difference caused by diarrhea inducing secretogogues determined in rabbit; ++ = active; assay type: functional, organism-based
[4] = Partition coefficient (logP); assay type: physicochemical; details: octanol/water
[5] = species: Oryctolagus cuniculus; assay: Inhibition of increase in potential difference caused by diarrhea inducing secretogogues determined in rabbit; 0 = inactive; assay type: functional
[6] = species: Rattus norvegicus; assay: Activity in the spontaneously hypertensive rats (SHR); inactive = post treatment BP did not change; assay type: functional, organism-based
[7] = species: Oryctolagus cuniculus; assay: Inhibition of increase in potential difference caused by diarrhea inducing secretogogues determined in rabbit; + = moderate activity; assay type: functional, organism-based
[8] = test system: Rattus norvegicus; assay type: functional; details: sc, read-out: ID50 (the source's name)
[9] = test system: Rattus norvegicus; assay type: functional; details: po, read-out: ID50 (the source's name)
[10] = species: Rattus norvegicus; assay: Activity in the spontaneously hypertensive rats (SHR); active = post treatment BP changed; assay type: functional, organism-based
[11] = species: Rattus norvegicus; assay: Activity in the spontaneously hypertensive rats (SHR); rats died due to convulsive side effects; assay type: functional, organism-based
[12] = species: Rattus norvegicus; assay: Activity in the spontaneously hypertensive rats (SHR); rats died due to exophthalmic side effects; assay type: functional, organism-based

Row | SMILES | ED50 [2] | logP ([4]; read-out: logP) | Activity [5] | further results
1 | Cc1cc(N)cc(C)c1OC(C)C1=NCCN1 (centres undefined) | > 100 mg/kg |  |  | Activity [1]: 0
2 | Cc1cccc(C)c1OC(C)(C)C1=NCCN1 | 3.7 mg/kg | 4.66 |  | Activity [3]: Active
3 | Cc1cccc(C)c1SC(C)C1=NCCN1 (centres undefined) | > 100 mg/kg |  | 0 | 
4 | Cc1c(O)cccc1OC(C)C1=NCCN1 (centres undefined) | 17.2 mg/kg | 3.21 |  | Activity [6]: inactive; Activity [7]: moderate activity
5 | Cc1cccc(C)c1OCC1=NCCN1 | > 100 mg/kg |  |  | Activity [7]: moderate activity
6 | Cc1ccc(OC(C)C2=NCCN2)c(C)c1 (centres undefined) | 24.1 mg/kg | 4.35 |  | 
7 | Cc1ccc(N)cc1OC(C)C1=NCCN1 (centres undefined) | > 100 mg/kg |  | 0 | 
8 | Cc1cc(C(=O)OC(C)(C)C)cc(C)c1OC(C)C1=NCCN1 (centres undefined) | > 100 mg/kg |  |  | 
9 | Cc1c(OCc2ccccc2)cccc1OC(C)C1=NCCN1 (centres undefined) | > 100 mg/kg |  |  | Activity [7]: moderate activity
10 | Cc1cc(C(=O)O)cc(C)c1OC(C)C1=NCCN1 (centres undefined) | > 100 mg/kg |  | 0 | 
11 | Cc1c(N)cc(N)c(C)c1OC(C)C1=NCCN1 (centres undefined) |  |  |  | ED50 [8]: 32 mg/kg
12 | Cc1ccc2ccccc2c1OC(C)C1=NCCN1 (centres undefined) | > 100 mg/kg |  | 0 | 
13 | Cc1cc2[nH]cnc2c(C)c1OC(C)C1=NCCN1 (centres undefined) | > 100 mg/kg |  | 0 | 
14 | CC(Oc1cccn2ncnc12)C1=NCCN1.CO (centres undefined) | 26.5 mg/kg |  |  | 
15 | Cc1cccc(C)c1NC(C)C1=NCCN1 (centres undefined) | > 100 mg/kg |  | 0 | 
16 | CCc1ccccc1OC(C)C1=NCCN1 (centres undefined) | 22.9 mg/kg | 4.23 |  | Activity [7]: moderate activity
17 | CCOC(=O)Nc1cccc(OC(C)C2=NCCN2)c1C (centres undefined) | 9.5 mg/kg | 3.27 | 0 | ED50 [9]: 4.6 mg/kg; Activity [10]: Active
18 | CCC(Oc1cccc(N)c1C)C1=NCCN1 (centres undefined) | 4.5 mg/kg | 3.19 |  | ED50 [9]: 5.2 mg/kg; Activity [10]: Active
19 | Cc1ccc(N)c(C)c1OC(C)C1=NCCN1 (centres undefined) | 1 mg/kg | 3.31 |  | Activity [3]: Active; Activity [10]: Active

Row | SMILES | ED50 [2] | logP ([4]; read-out: logP) | Activity [5] | further results
20 | Cc1c(N)cccc1OC(C)C1=NCCN1 (single isomer, unassigned) |  |  |  | Activity [10]: Active
21 | Cc1c(N)cccc1OC(C)C1=NCCN1 (stereo in doubt; 32) [listing 1 of 2 here] |  | 2 |  | 
22 | Cc1cccc(C)c1CC(C)C1=NCCN1 (centres undefined) | > 100 mg/kg |  | 0 | 
23 | CC(Oc1cccc2[nH]ccc12)C1=NCCN1 (centres undefined) | 5.7 mg/kg | 3.12 |  | ED50 [9]: 6.6 mg/kg; Activity [3]: Active; Activity [10]: Active
24 | Cc1c(N)cccc1OC(C)C1=NCCN1.Cl.Cl (centres undefined) | 5.6 mg/kg |  |  | ED50 [9]: 1.3 mg/kg; logP [4]: 2
25 | Cc1cc(C)c(OC(C)C2=NCCN2)cc1N (centres undefined) | 7.8 mg/kg | 3.01 | 0 | 
26 | COc1cccc(OC(C)C2=NCCN2)c1C (centres undefined) | > 100 mg/kg |  |  | 
27 | CCOC(=O)Nc1ccc(C)c(OC(C)C2=NCCN2)c1C (centres undefined) | 3 mg/kg | 4.4 |  | Activity [10]: Active; Activity [7]: moderate activity
28 | Cc1cccc(C)c1OC(C)C1=NCCN1 (centres undefined) | 1.7 mg/kg | 4.39 |  | ED50 [9]: 2.7 mg/kg; Activity [3]: Active
29 | Cc1c(N)cccc1OC(C)C1=NCCN1 (centres undefined) |  |  |  | Activity [3]: Active
30 | Cc1cccc(C)c1OC(C)C1=NC2CCCCC2N1 (centres undefined) | 24.1 mg/kg |  |  | 
31 | Cc1c(N)cccc1OC(C)C1=NCCN1 (stereo in doubt; 32) [listing 2 of 2 here] |  |  |  | Activity [10]: Active
32 | Cc1ncccc1OC(C)C1=NCCN1 (centres undefined) |  |  |  | ED50 [8]: > 100 mg/kg
33 | Cc1cccc(C)c1OC(C)C1=NCCN1C (centres undefined) | 32.4 mg/kg |  |  | 
34 | Cc1ccc2[nH]ccc2c1OC(C)C1=NCCN1.ClCCl (centres undefined) | 1.6 mg/kg | 3.77 |  | ED50 [9]: 1.2 mg/kg; Activity [11]: rats died due to convulsive side effects
35 | Cc1cc(Br)c(N)c(C)c1OC(C)C1=NCCN1 (centres undefined) | > 100 mg/kg |  |  | 
36 | Cc1cc(C)c(OC(C)C2=NCCN2)c(C)c1 (centres undefined) | 11.1 mg/kg | 5 | 0 | Activity [6]: inactive
37 | Cc1cc([N+](=O)[O-])cc(C)c1OC(C)C1=NCCN1 (centres undefined) | > 100 mg/kg |  | 0 | 
38 | CC(Oc1ccc2ccccc2c1)C1=NCCN1 (centres undefined) | > 100 mg/kg |  | 0 | 

Row | SMILES | ED50 [2] | logP ([4]; read-out: logP) | Activity [5] | further results
39 | Cc1cccc(C)c1OC(C)C1=NCCS1 (centres undefined) | > 100 mg/kg |  | 0 | 
40 | CC(Oc1cccc2ccccc12)C1=NCCN1 (centres undefined) | 17.9 mg/kg | 4.35 | 0 | ED50 [9]: 16.1 mg/kg; Activity [6]: inactive
41 | Cc1cccc(C)c1OC(CCO)C1=NCCN1 (centres undefined) | 6.9 mg/kg | 2.89 |  | Activity [6]: inactive; Activity [7]: moderate activity
42 | Cc1cccc(C)c1OC(C)C1=NCCCN1 (centres undefined) | > 100 mg/kg |  | 0 | 
43 | CC(Oc1c(Cl)cccc1Cl)C1=NCCN1 (centres undefined) [LOFEXIDINE] | < 2 mg/kg |  |  | 
44 | CC(=O)Nc1cccc(OC(C)C2=NCCN2)c1C (centres undefined) | 7 mg/kg | 2.43 | 0 | 
45 | CC(Oc1cccc(N)c1)C1=NCCN1 (centres undefined) | > 100 mg/kg |  | 0 | 
46 | Cc1c(OC(C)C2=NCCN2)cccc1N(C)C (centres undefined) | 4 mg/kg | 4 | 0 | 
47 | CCc1cccc(CC)c1OC(C)C1=NCCN1 (centres undefined) | 2.3 mg/kg | 5.41 |  | Activity [3]: Active; Activity [6]: inactive
48 | C=CCc1cccc(CC=C)c1OC(C)C1=NCCN1 (centres undefined) | > 100 mg/kg |  |  | 
49 | Clc1cccc(Cl)c1NC1=NCCN1 [CLONIDINE] | 0.3 mg/kg |  |  | 
50 | CCCc1cccc(CCC)c1OC(C)C1=NCCN1 (centres undefined) | > 100 mg/kg |  |  | Activity [7]: moderate activity
51 | CC(Oc1cncc2ccccc12)C1=NCCN1 (centres undefined) | 21.7 mg/kg |  |  | 
52 | Cc1c(N)cccc1OC(CCO)C1=NCCN1 (centres undefined) | 1.2 mg/kg | 1.2 |  | Activity [12]: rats died due to exophthalmic side effects; ED50 [9]: 1.3 mg/kg
53 | COc1cccc(OC)c1OC(C)C1=NCCN1 (centres undefined) | > 100 mg/kg |  |  | 
54 | Cc1cc(Br)cc(C)c1OC(C)C1=NCCN1 (centres undefined) | > 100 mg/kg |  |  | 
55 | Cc1cccc(C)c1OC(C)c1nc2ccccc2[nH]1 (centres undefined) | > 100 mg/kg |  |  | 
56 | CCC(Oc1c(C)cccc1C)C1=NCCN1 (centres undefined) | 5.2 mg/kg | 4.88 | 0 | 
